Reference: patent publication US12201612B2, “Use of mavoglurant in the reduction of alcohol use or in preventing relapse into alcohol use” (NOVARTIS AG, priority 2017, dated 2025)
“Also recorded” adds a separate entry of the source.

Tests used:
mice [1] = settings: cited from earlier work
NMDA receptors = settings: cited from earlier work
mice [2] = settings: cited from earlier work; remark: listed apart in the source
monoamine oxidase = settings: cited from earlier work
[3] = target: norepinephrine transporter (Homo sapiens, UniProt P23975); settings: cited from earlier work
rats = settings: cited from earlier work
Sprague-Dawley rats [4] = experiment: Acute effects on cocaine intravenous self-administration (Phase I, FR5); type: in vivo, rat; settings: sub-cohort I-b
Experimental: Adult male Sprague-Dawley rats (300-325 g at arrival) from Harlan Laboratory (Indiana, USA) were used. Upon arrival, the rats were assigned a unique identification numbers (tail marks). Animals were single housed in suspended polycarbonate rat cages with filter tops, and were acclimated for up to 7 days. All rats were examined, handled, and weighed prior to initiation of the study to assure adequate health and suitability. During the course of the study, 12 h/12 h light/dark cycles were maintained. The room temperature was 21-23° C. with a relative humidity maintained at 30-70%. Water was provided ad libitum for the duration of the study.
Cocaine Hydrochloride (Sigma-Aldrich, USA) (1.05 mg/ml which is equivalent to 0.3 mg/kg/infusion under 350 g body weight and 0.1 ml/infusion rate) was dissolved in saline (0.9% NaCl). The formulation was a clear solution.
Mavoglurant (free form) was formulated in 0.5% methylcellulose (MC) at 1, 3 and 10 mg/kg and administered orally at a dose volume of 1 ml/kg 60 minutes prior to test.
Intravenous drug self-administration took place in sound attenuated operant chambers equipped with an exhaust fan (Med Associates, VT). Each chamber contained two levers situated on one wall of the chamber. Only one of the two levers was active (located on the left side). Pressing the active lever caused delivery of reinforcer (food or cocaine). […]

Sprague-Dawley rats [5] = experiment: Cue-induced reinstatement of the cocaine self-administration response (Phase II); type: in vivo, rat; settings: 10 mg/kg PO, 1 hour prior to test; after 9-day extinction
Experimental: The methods for food training, catheter surgery, flushing and infusion confirmation were the same as those in Phase I.
Cocaine self-administration training in this stage was conducted in a separate cohort of rats (N=32). The methods of training were the same as those in Phase I, but the cues (light flash plus tone) appeared concurrently during cocaine infusion, and the cue light stayed on during the 20 second timeout period. As in Phase I, rats underwent 15 days of acquisition training.
After a stable rate of cocaine self-administration was achieved, the rats underwent a 9-day extinction procedure, which was similar to acquisition training except that pressing the active lever led to saline infusion instead of cocaine. During extinction sessions no cues were presented after an active lever-press. Rats were all reached the criterion for extinction (number of infusions ≤5, i.e. number of active lever responses <30 in the 1-hour session) in day 9 (last day) of extinction training.
During the reinstatement session, which occurred one day after the last extinction session, rats were presented the cues (flash+tone) at the beginning of the session and their lever-press responses recorded. There was no cocaine infusion during this reinstatement session, subject only received saline on a FR5 schedule. […]

cytochrome P450 1A2 = target: T1, cytochrome P450 1A2 (Homo sapiens, UniProt P05177); settings: cited from earlier work
T1 sequence (P05177 1-516): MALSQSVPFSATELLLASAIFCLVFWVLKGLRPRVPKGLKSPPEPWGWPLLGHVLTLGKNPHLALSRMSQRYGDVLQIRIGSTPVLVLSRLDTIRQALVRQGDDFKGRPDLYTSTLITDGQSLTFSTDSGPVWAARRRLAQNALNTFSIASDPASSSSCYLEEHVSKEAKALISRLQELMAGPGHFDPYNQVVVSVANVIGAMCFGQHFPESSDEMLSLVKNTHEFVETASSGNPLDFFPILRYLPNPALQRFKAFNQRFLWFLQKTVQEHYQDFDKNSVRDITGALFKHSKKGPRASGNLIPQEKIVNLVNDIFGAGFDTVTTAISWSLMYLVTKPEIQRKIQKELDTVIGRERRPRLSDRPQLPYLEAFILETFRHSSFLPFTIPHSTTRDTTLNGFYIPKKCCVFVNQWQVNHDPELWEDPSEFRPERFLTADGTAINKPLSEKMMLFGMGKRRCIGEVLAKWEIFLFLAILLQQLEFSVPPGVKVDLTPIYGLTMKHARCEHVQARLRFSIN

norepinephrine transporter, sequence (P23975 whole entry, species assumed): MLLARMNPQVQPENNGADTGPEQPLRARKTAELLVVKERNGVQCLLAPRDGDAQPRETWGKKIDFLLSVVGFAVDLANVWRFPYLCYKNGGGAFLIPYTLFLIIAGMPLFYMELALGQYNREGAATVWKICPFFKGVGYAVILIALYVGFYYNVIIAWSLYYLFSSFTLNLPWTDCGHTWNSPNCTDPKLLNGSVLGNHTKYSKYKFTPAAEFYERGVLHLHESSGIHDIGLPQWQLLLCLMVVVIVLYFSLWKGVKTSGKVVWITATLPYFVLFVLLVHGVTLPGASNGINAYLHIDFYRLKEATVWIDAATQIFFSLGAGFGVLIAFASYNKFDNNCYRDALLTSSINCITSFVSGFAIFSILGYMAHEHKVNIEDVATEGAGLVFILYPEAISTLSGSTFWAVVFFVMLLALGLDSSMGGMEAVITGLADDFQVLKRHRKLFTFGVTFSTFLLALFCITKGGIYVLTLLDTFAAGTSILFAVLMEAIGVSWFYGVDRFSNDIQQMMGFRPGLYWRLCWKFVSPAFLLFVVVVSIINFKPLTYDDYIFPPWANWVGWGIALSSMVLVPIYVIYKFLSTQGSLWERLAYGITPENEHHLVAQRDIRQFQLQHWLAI

SMILES | ethanol self-administration (mice [1]) | off-target effects on NMDA receptors (NMDA receptors) | cocaine self-administration (mice [2]) | off-target effects on monoamine oxidase (monoamine oxidase) | off-target effects on the norepinephrine transporter [3] | cocaine self-administration (rats) | responding on the active lever (cocaine self-administration) (Sprague-Dawley rats [4]; 3 mg/kg PO, 60 minutes prior to test, post hoc p<0.10) | responding on the active lever (cocaine self-administration) (Sprague-Dawley rats [4]; 10 mg/kg PO, 1 hour prior to test, post hoc p<0.001) | cue-induced reinstatement of the self-administration response (Sprague-Dawley rats [5]) | ethanol consumption (mice [1]) | inhibition of cytochrome P450 1A2 (cytochrome P450 1A2)
Cc1cccc(C#Cc2ccccc2)n1 [MPEP, 2-methyl-6-(2-phenylethynyl)pyridine] | decreased ethanol self-administration | off-target effects | decreased cocaine self-administration | off-target effects | off-target effects | decreased cocaine self-administration | – | – | – | – | –
COC(=O)N1CC[C@@H]2[C@H]1CCC[C@@]2(O)C#Cc1cccc(C)c1 [mavoglurant, (−)-(3aR,4S,7aR)-4-Hydroxy-4-m-tolylethynyl-octahydro-indole-1-carboxylic acid methyl ester] | – | – | – | – | – | – | tended to reduce responding on the active lever | significantly reduced responding; also recorded: significantly reduced cocaine self-administration | cue-induced reinstatement was suppressed; also recorded: completely prevented cue-induced reinstatement | – | –
Cc1nc(C#Cc2cccnc2)cs1 [MTEP, 3-[2-(2-methylthiazol-4-yl)ethynyl]pyridine] | decreased ethanol self-administration | – | – | – | – | decreased cocaine self-administration | – | – | – | decreased ethanol consumption | potent inhibition
